The numbers were not newly measured in patent US11224576B2, “Process for the production of an abuse-proofed dosage form” (GRÜNENTHAL GMBH, priority 2004, dated 2022), which cites them from elsewhere.

On to `COc1cccc(C2(O)CCCCC2CN(C)C)c1` (stereo not shown) [Tramadol, tramadol], for which the water solubility entry is listed as “excellent”.
